For test [1], the system named is 4T1 mouse breast cancer cells. Put plainly: Cytotoxicity (MTT) in combination with DOX. The test is classed as cell-based. The conditions noted are these: 48 h, sensitizer 5 μg/mL in the combination.
Description: (§1) CT26 cells (MC38 cells, 4T1 cells, B16FIO cells, HePa1-6 cells, H22 cells, LLC cells, MB49 cells, P388 cells, C6 cells, BXPC-3 cells, Hela cells, MDA-MB-231 cells, A2780 cells. PC3 cells. HepG2 cells, and HGC-27 cells) were cultured at 5,000 cells/well in a 96-well plate, 100 μL of a medium was added to each well, and the cells were incubated in a 37° C. constant-temperature incubator with 5% CO2 and 95% humidity for 24 h. 100 μL of different concentrations of drugs (DOX: 0.01 μg/mL to 10 μg/mL; PTX: 0.01 μg/mL to 50 μg/mL; Cela: 0.05 μg/mL to 1 μg/mL; sensitizer: 5 μg/mL) were added to each well, while 100 lit of a medium solution was added to the blank group. After culturing for 48 h, centrifugation was conducted at 1,100 rpm for 6 min, the medium in each well was discarded, 100 μL of an 11,11T working solution was added, and the culturing was continued for 3 h. Centrifugation was conducted at 3,300 rpm. for 5 min, the MITT medium in each well was discarded, 100 pt, of the DMSO was added, and the plate was shaken for 5 min to dissolve all crystals in each well. An absorbance of the sample at 562 nm was detected by a microplate reader. Each set of data was an average of three independent experimental results on the same sample.
Test [2] relates to HePa1-6 mouse hepatoma cells. Put plainly: Cytotoxicity (MTT) in combination with DOX. The conditions noted are these: 48 h, sensitizer 5 μg/mL in the combination. In kind it is cell-based.
Description: as §1
Test [3] relates to C6 rat glioma cells. Put plainly: Cytotoxicity (MTT) in combination with DOX. The test is classed as cell-based. The note with it: Glioma cell, 48 h, sensitizer 5 μg/mL in the combination.
Description: as §1
Test [4] deals with BXPC-3 human pancreatic cancer cells. Put plainly: Cytotoxicity (MTT) in combination with DOX. The test is classed as cell-based. The note with it: 48 h, sensitizer 5 μg/mL in the combination.
Description: as §1
For test [5], the system named is CT26 mouse colon cancer cells. Put plainly: Cytotoxicity (MTT) in combination with chemotherapeutic drugs.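 Further: MTT read-out taken as absorbance at 562 nm after a 3 h dye incubation, medium-only wells as blank, values averaged over three independent experiments.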 The note with it: Mus musculus, CT26, 48 h.
Description: as §1
Test [6] concerns HGC-27 human gastric cancer cells. Nature of the test: Cytotoxicity (MTT) in combination with DOX. The test is classed as cell-based. The conditions noted are these: 48 h, sensitizer 5 μg/mL in the combination.
Description: as §1
In test [7] the test system is MDA-MB-231 human breast cancer cells. Nature of the test: Cytotoxicity (MTT) in combination with DOX. The test is classed as cell-based. The note with it: 48 h, sensitizer 5 μg/mL in the combination.
Description: as §1
For test [8], the system named is A2780 Human ovarian cancer cells. Nature of the test: Cytotoxicity (MTT) in combination with DOX. In kind it is cell-based. The note with it: 48 h, sensitizer 5 μg/mL in the combination.
Description: as §1
The subject of test [9] is H22 mouse hepatoma cells. Nature of the test: Cytotoxicity (MTT) in combination with DOX. The test is classed as cell-based. The conditions noted are these: 48 h, sensitizer 5 μg/mL in the combination.
Description: as §1
Test [10] relates to Hela human cervical cancer cells. Put plainly: Cytotoxicity (MTT) in combination with DOX. The test is classed as cell-based. The note with it: 48 h, sensitizer 5 μg/mL in the combination.
Description: as §1
The test system of test [11] is PC3 human prostate cancer cells. Put plainly: Cytotoxicity (MTT) in combination with DOX. In kind it is cell-based. The note with it: 48 h, sensitizer 5 μg/mL in the combination.
Description: as §1
Test [12] deals with HepG2 human hepatoma cells. Nature of the test: Cytotoxicity (MTT) in combination with DOX. The test is classed as cell-based. The conditions noted are these: 48 h, sensitizer 5 μg/mL in the combination.
Description: as §1
Test [13] relates to MB49 mouse bladder cancer cells. Put plainly: Cytotoxicity (MTT) in combination with DOX. The conditions noted are these: 48 h, sensitizer 5 μg/mL in the combination. The test is classed as cell-based.
Description: as §1
Test [14] has as its system MC38 mouse colon cancer cells. Put plainly: Cytotoxicity (MTT) in combination with DOX. The test is classed as cell-based. The conditions noted are these: MC-38, 48 h, sensitizer 5 μg/mL in the combination.
Description: as §1
For test [15], the system named is B16F10 mouse melanoma cells. Nature of the test: Cytotoxicity (MTT) in combination with DOX. The test is classed as cell-based. The conditions noted are these: B16-F10, 48 h, sensitizer 5 μg/mL in the combination.
Description: as §1
The test system of test [16] is P388 mouse lymphoma cells. Put plainly: Cytotoxicity (MTT) in combination with DOX. The test is classed as cell-based. The conditions noted are these: 48 h, sensitizer 5 μg/mL in the combination.
Description: as §1
For test [17], the system named is LLC mouse lung cancer cells. Put plainly: Cytotoxicity (MTT) in combination with DOX. The test is classed as cell-based. The conditions noted are these: 48 h, sensitizer 5 μg/mL in the combination.
Description: as §1

As usually defined, the IC50 is the midpoint of a concentration-inhibition curve.

In the case of `COc1cccc2c1C(=O)c1c(O)c3c(c(O)c1C2=O)C[C@@](O)(C(=O)CO)C[C@@H]3O[C@H]1C[C@H](N)[C@H](O)[C@H](C)O1` [DOX, doxorubicin], the IC50 in test [1] was 1.76 ± 0.221 µg/mL; in test [2], 1.35 ± 0.331 µg/mL; in test [3], 0.119 ± 0.026 µg/mL; in [4] it was 14.2 ± 1.68 µg/mL; in [5], 0.256 ± 0.017 µg/mL; in test [6] it was 1.82 ± 0.227 µg/mL. In addition, the IC50 in test [7] was found to be 3.57 ± 0.153 µg/mL; in [8], 10.1 ± 1.24 µg/mL; in test [9], 5.13 ± 0.119 µg/mL; in [10], 2.77 ± 0.492 µg/mL; in [11] it was 2.32 ± 0.195 µg/mL; in test [12], 3.45 ± 0.778 µg/mL. Besides, the IC50 turned out to be 0.447 ± 0.022 µg/mL in [13]; 0.411 ± 0.017 µg/mL in [14]; 0.214 ± 0.011 µg/mL in test [15]; 0.197 ± 0.029 µg/mL in test [16]; 0.088 ± 0.007 µg/mL in [17].

Values taken from US20230248717A1, “N-(3-HYDROXYPYRIDINE-2-CARBONYL)GLYCINE-BASED ANTITUMOR DRUG SENSITIZER AND APPLICATION THEREOF” (ZHEJIANG UNIVERSITY, priority 2019, published 2023).
